The values that follow come from US10875876B2, “Cyclized sulfamoylarylamide derivatives and the use thereof as medicaments for the treatment of hepatitis B” (priority 2015, dated 2020).

pEC50: −log10 of the molar value. Like-named read-outs stand apart in the source and are kept apart here.

The conditions of series [1]: from C=CCCCCC(C)NS(=O)(=O)c1cn(C)c(C(=O)OC)c1CC=C; rcm bond; Grubbs catalyst 2nd generation; DCE; 3.4 mM; 80.0 °C; 2.0 h.
In series [2] the test system is HBV. The series can be described thus: anti HBV activity, HepG2.117 cell line, intracellular HBV DNA by realtime PCR. The conditions noted are these: HepG2.117 cell line (Tet-off), 3 days of treatment, intracellular HBV DNA quantified by realtime PCR; read-out: HBV-AVE-HepG2.117 EC50. The format is cell-based. In outline: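 HepG2.117 cells, a Tet-off line that replicates HBV without doxycycline, were induced and then treated in duplicate with serially diluted compound. After 3 days, intracellular HBV DNA was quantified by real-time PCR with an HBV-specific primer set and probe.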

Series [3] has as its system HepG2 cells.
Series [4] concerns HepG2 cells. Description: Cytotoxicity in HepG2 cells, Resazurin assay. The conditions noted are these: read-out: TOX-HepG2-4 d CC50; HepG2 cells incubated for 4 days, viability by Resazurin assay. For orientation: Resazurin is reduced to fluorescent resorufin, in cell work by metabolically active cells.

For the compound `COC(=O)c1c2c(cn1C)S(=O)(=O)NC(C)CCCC/C=C\C2` (stereo not drawn), the ring closure, yield of all isomers in series [1] worked out at 61.1%.

For the compound `C[C@@H](N1CCCCc2c(cn(C)c2C(=O)Nc2ccc(F)c(F)c2)S1(=O)=O)C(F)(F)F` [Compound 4, N-(3,4-difluorophenyl)-8-methyl-1,1-dioxo-2-[(1R)-2,2,2-trifluoro-1-methyl-ethyl]-3,4,5,6-tetrahydropyrrolo[3,4-g]thiazocine-7-carboxamide], the pEC50 in series [2] is 5.96. This compound had a CC50 in series [3] of more than 25 µM.

As to `C[C@@H]1Oc2c(cn(C)c2C(=O)Nc2ccnc(Br)c2)S(=O)(=O)N[C@@H]1CO` [compound 236], the negative logarithm of the EC50 (pEC50) in series [2] was 6.47. Besides, the CC50 in series [4] was more than 25 µM.

Take `Cn1cc2c(c1C(=O)Nc1ccc(F)c(F)c1)O[C@@H](C(F)(F)F)[C@H](CO)NS2(=O)=O` [compound 244]: the pEC50 in series [2] was less than 6.30. Further, the CC50 in series [4] was more than 25 µM.

As for `CC1CCn2c(C(=O)Nc3ccc(F)c(F)c3)nc(Br)c2S(=O)(=O)N1` (stereo not drawn) [compound 245], in series [2], the pEC50 was less than 4.60. Besides, in series [4], the CC50 was more than 25 µM.

By pEC50 is commonly meant the negative decadic logarithm of the EC50, by convention in mol/L. As a reminder, the CC50 is the concentration at which the toxic effect on the cells reaches its halfway point.
